Assay results from PubChem BioAssay (NCI).
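Growth conditions: 96-well plates. Treatment: test compound, 48 hours, 5 concentrations. Analysis: linear interpolation between bracketing concentrations; unreached endpoints set to highest concentration. Here, GI50 denotes the concentration required for 50% inhibition of growth. The concentration for full growth arrest is given as TGI.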

Columns and labels:
Test in all cases: inhibition of tumour cell growth, NCI panel, 48 h
NCI-H460 lung = system: NCI-H460 lung
OVCAR-3 ovarian = system: OVCAR-3 ovarian
U251 CNS = system: U251 CNS
SW-620 colon = system: SW-620 colon
UO-31 renal = system: UO-31 renal
NCI-H23 lung = system: NCI-H23 lung
MCF7 breast = system: MCF7 breast
SN12C renal = system: SN12C renal
OVCAR-5 ovarian = system: OVCAR-5 ovarian
A498 renal = system: A498 renal
HOP-92 NSCLC = system: HOP-92 NSCLC
LOX IMVI melanoma = system: LOX IMVI melanoma

SMILES | TGI (NCI-H460 lung) | TGI (OVCAR-3 ovarian) | TGI (U251 CNS) | TGI (SW-620 colon) | TGI (UO-31 renal) | TGI (NCI-H23 lung) | TGI (MCF7 breast) | TGI (SN12C renal) | TGI (OVCAR-5 ovarian) | TGI (A498 renal) | TGI (HOP-92 NSCLC) | TGI (LOX IMVI melanoma) | GI50 (NCI-H460 lung) | GI50 (OVCAR-3 ovarian) | GI50 (SW-620 colon) | GI50 (UO-31 renal) | GI50 (NCI-H23 lung) | GI50 (MCF7 breast) | GI50 (HOP-92 NSCLC)
COc1cc(CC2CCc3nc(N)nc(N)c3C2)cc(OC)c1OC (stereo not drawn) | > 91.5 µM | > 100 µM | > 100 µM | > 100 µM | > 71.5 µM | > 72.5 µM | > 100 µM | > 100 µM | > 100 µM | > 87.8 µM | > 100 µM | > 43.1 µM | – | – | – | – | – | – | –
CCSC(=Nc1ccccc1)SC | > 100 µM | > 100 µM | > 100 µM | > 100 µM | > 100 µM | > 100 µM | – | > 100 µM | > 100 µM | – | > 100 µM | > 100 µM | – | – | – | – | – | – | –
CC(N)Cc1cccc(C(F)(F)F)c1 (stereo not drawn) | > 100 µM | > 100 µM | > 100 µM | > 100 µM | > 100 µM | > 100 µM | – | > 100 µM | > 100 µM | > 100 µM | > 100 µM | > 100 µM | – | – | – | – | – | – | –
N#CN=Nc1cc(Cl)c(N=NC#N)cc1Cl | > 100 µM | > 100 µM | > 100 µM | > 100 µM | – | > 100 µM | – | > 100 µM | > 100 µM | > 100 µM | > 100 µM | > 100 µM | – | – | – | – | – | – | –
C#CCCCC(=C)C[C@H](OCc1ccccc1)[C@H]1OC(=O)[C@@H]1C | > 100 µM | > 100 µM | > 100 µM | > 100 µM | 58.8 µM | > 100 µM | > 100 µM | > 100 µM | > 100 µM | > 100 µM | > 100 µM | – | – | – | – | – | – | – | –
NC(=O)/N=C(\N)NC(=O)c1ccccc1 | > 100 µM | > 100 µM | > 100 µM | > 100 µM | > 100 µM | > 100 µM | – | > 100 µM | > 100 µM | > 100 µM | > 100 µM | > 100 µM | – | – | – | – | – | – | –
CN(C)CCOc1cc2c(c3ccccc13)-c1ccccc1C2=O | 2.34 µM | 4.99 µM | 6.58 µM | 3.87 µM | 3.15 µM | 5.24 µM | 5.6 µM | 7.43 µM | 7.05 µM | 19.3 µM | 4.25 µM | 2.53 µM | – | – | – | – | – | – | –
COC(=O)c1cccc(NC(=O)Nc2ccc3oc(=O)c4ccccc4c3c2)c1 | > 100 µM | > 100 µM | – | > 100 µM | > 100 µM | > 100 µM | > 100 µM | – | – | – | > 100 µM | – | > 100 µM | > 100 µM | > 100 µM | > 100 µM | > 100 µM | > 100 µM | > 100 µM
Cc1nc(Nc2nnc(-c3cc([N+](=O)[O-])cc([N+](=O)[O-])c3C)o2)sc1C(=O)CC(=O)Cc1nc2ccc(Cl)cc2[nH]c1=O | > 100 µM | – | > 100 µM | > 100 µM | > 100 µM | > 100 µM | – | > 100 µM | > 100 µM | > 100 µM | > 100 µM | > 100 µM | – | – | – | – | – | – | –
CO/C(=N/N1CC1C(F)(F)F)c1ccncc1 (stereo not drawn) | > 100 µM | > 100 µM | > 100 µM | – | > 100 µM | > 100 µM | > 100 µM | > 100 µM | > 100 µM | > 100 µM | > 100 µM | – | – | – | – | – | – | – | –
O=C(CCl)N1CCCCC1C1(c2cc3ccccc3[nH]2)OCCO1 (stereo not drawn) | > 34.5 µM | 5.34 µM | 12.7 µM | 58.9 µM | 11.3 µM | 8.47 µM | 8.97 µM | 9.85 µM | 17.2 µM | 11.8 µM | 24.7 µM | 0.141 µM | – | – | – | – | – | – | –
